The source of these data is US12448352B2, “Beta adrenergic agonist and methods of using the same” (Curasen Therapeutics, Inc., priority 2019, dated 2025).

Data set [1] is described as follows: Dog pharmacokinetic study. It counts as in vivo, male Beagle dogs. As for the experimental part: The rat pharmacokinetics studies of exemplary compounds 03-3, 03-5, and 03-115 were conducted with male SD rats. These rats were typically about 6-8 weeks old, weighing 200 g to 300 g. Animals were fasted overnight and free access to food 4 hours after dosing. A required volume of vehicle was added to reach the target concentration of the test article and vehicle component to prepare for the dosing. The dosing vehicle was PEG400 or 30% PEG400 in saline for IV, or 0.5% methylcellulose in water for PO. For IV dosing, the animals were administered intravenously via tail vein. For PO dosing, the animals were administered via oral gavage. After dosing, blood sample was collected (˜0.2 mL per time point) through jugular vein or heart puncture. Blood of each sample was transferred into plastic micro centrifuge tubes containing EDTA-K2. Collection tubes with blood samples and anticoagulant were inverted several times for proper mixing of the tube contents and then placed on wet ice. The blood samples were centrifuged at 2000 g for 5 minutes at 4° C. to obtain plasma which was stored in a freezer at −75±15° C. prior to analysis. Samples were analyzed using LC-MS/MS. WinNonlin were used for pharmacokinetic calculations.
Dog pharmacokinetics studies of exemplary compounds 03-3, 03-5, and 03-115 were conducted substantially similarly to the rat pharmacokinetic studies, instead using male Beagle dogs. Animals for PO studies were food fasted overnight prior to dosing and were fed approximately 2 hours after dosing. Animals for IV studies had free access to food and water. Blood samples were collected through venipuncture of peripheral veins except the dosing vein.

The subject of data set [2] is MDCK-MDR1 cells. In words: MDCK-MDR1 permeability assay. The format is in vitro ADME. Also on record: A-B (Papp apical to basolateral) / B-A (Papp basolateral to apical): unit not given here. As for the experimental part: Preparation of MDCK-MDR1 Cells. Cell culture medium of was added to each well of the Transwell insert (50 μL) and reservoir (25 mL). The HTS transwell plates were then incubated at 37° C., 5% CO2 for 1 hour before cell seeding. MDCK-MDR1 cells were diluted to 1.56×10^6 cells/mL with culture medium and 50 μL of cell suspension were dispensed into the filter well of the 96-well HTS Transwell plate. Cells were cultivated for 4-8 days in a cell culture incubator at 37° C., 5% CO2, 95% relative humidity. Cell culture medium was replaced every other day, beginning no later than 24 hours after initial plating.
Preparation of Stock Solutions. 10 mM stock solutions of test compounds were prepared in DMSO. The stock solutions of positive controls were prepared in DMSO at the concentration of 10 mM. Metoprolol, prazosin and imatinib were used as control compounds in this assay.
Assessment of Cell Monolayer Integrity. Medium was removed from the reservoir and each Transwell insert and replaced with prewarmed fresh culture medium. Transepithelial electrical resistance (TEER) across the monolayer was measured using Millicell Epithelial Volt-Ohm measuring system (Millipore, USA). The Plate was returned to the incubator once the measurement was done. TEER value should be greater than 42 ohm·cm2, which indicates the well-qualified MDCK-MDR1 monolayer. The TEER value was calculated according to the following equation: TEER measurement (ohms)×Area of membrane (cm^2)=TEER value (ohm·cm^2)
Assay Procedures. The MDCK-MDR1 plate was removed from the incubator and washed twice with pre-warmed HBSS (10 mM HEPES, pH 7.4), and then incubated at 37° C. for 30 minutes. The stock solutions of test compounds and controls were diluted in DMSO to get 1 mM solutions and then diluted with HBSS (10 mM HEPES, pH 7.4) to get 5 μM working solutions. The final concentration of DMSO in the incubation system was 0.5%. […]

`Cc1ncccc1[C@@H](O)CNC(C)(C)C` [Compound 03-115]: in data set [1] (PO 0.5 mg/kg), the AUCInf is 132 ng·h/mL; the Cmax (as a rule, the highest concentration seen after dosing) is given as 72.3 ng/mL; the MRT (commonly a mean duration of stay, worked out from the concentration-time curve) stood at 1.82 h; the time to peak (Tmax) (commonly the time from dosing to the highest level) is listed as 0.5 h. In addition, in data set [1] (PO 1.5 mg/kg), the AUCInf was 537 ng·h/mL, the Cmax is 387 ng/mL, the MRT is 1.69 h and the Tmax was 0.33 h. For the same molecule, in data set [2] (MDCK-MDR1, 5 μM, 2 hours), the “A-B (Papp apical to basolateral)” value turned out to be 6.96 and the “B-A (Papp basolateral to apical)” value is 10.98. The “Efflux Ratio” value in data set [2] (MDCK-MDR1, Papp (B-A)/Papp (A-B)) was found to be 1.58.
